# Test: gradient 5% acetonitrile 3 min, to 50% in 2 min, to 85% in 15 min, held 3 min, 100 µL/min
# Details: column: Zorbax Extend-C18 2.1 x 50 mm; eluents: water / acetonitrile, 0.1% formic acid
# Summary of the method: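 Pure standards were analyzed in mixtures of ~100 molecules using HPLC coupled to a quadrupole time-of-flight mass spectrometer, in both positive and negative ionization mode. Separation used a Zorbax Extend-C18 column (2.1 × 50 mm, 1.8 μm) at 100 μL/min, with water and acetonitrile each containing 0.1% formic acid. Dead and dwell volumes were 40 μL and 900 μL, and data were collected over 3 months. Retention time was read from computationally picked adduct peaks, each inspected manually.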
row,Compound,RP-LC retention time [s]
1,CC(C)c1cc(N2CCN(C(=O)c3ccc4c(c3)OCO4)CC2)nc2nncn12,610
2,COc1ccc(CNC(=O)NCC2(CO)CC2)cc1OC,590
3,CCOC(=O)c1c(C)[nH]c(C(=O)N2CCCC(C(=O)NCc3ccccc3OC)C2)c1C (centres undefined),785
4,O=C(NCCC1CCN(S(=O)(=O)c2ccc(F)cc2)CC1)NC1CCCCC1,890
5,CCc1cc(C(=O)N2CCN(C(C)C)CC2)nc2cc(-c3ccccn3)nn12,650
6,CC(C)c1cc(C2CCCN2C(=O)NC(C)(C)C)on1 (centres undefined),835
7,CCOc1nc2ccccc2nc1N1CCCC(C(=O)NC2CCCCCC2)C1 (centres undefined),1250
8,COc1cccc(N2CCN(C(=O)C3CC(=O)N(c4n[nH]c5cccc(F)c45)C3)CC2)c1 (centres undefined),742
9,COc1cc(OC)cc(-c2noc(-c3nn(-c4ccc(C)c(C)c4)ccc3=O)n2)c1,979
10,COc1ccc(NC(=O)N2CCC(c3nc(C(=O)N(C)C)c(C)o3)CC2)cc1Cl,840
11,O=C(Cn1nc2n(c1=O)CCCC2)Nc1cccc(C(F)(F)F)c1,705
12,COc1ccc(-n2nc(C)c3sc(N4CCCC(C(=O)NC5CCCC5)C4)nc32)cc1 (centres undefined),1040
13,CCn1nccc1C(=O)NC1CCN(C2=NS(=O)(=O)C(c3ccc(C)cc3)=C2C)CC1,817
14,NC(=O)C1CCN(Cc2nc(-c3ccc(N4CCSCC4)nc3)no2)CC1,597
15,CN1C(=O)NC2(CCN(C(=O)c3cccs3)CC2)C1=O,561
16,CN1c2cc(Cl)ccc2C(=O)NC12CCN(C(=O)Nc1ccc3c(c1)OCCO3)CC2,781
17,O=C(c1ccc(F)c(F)c1)N1CCN(C(=O)c2nnn3c2COC(c2ccc(Cl)cc2)C3)CC1 (centres undefined),937
18,COCCn1c(CC2CCN(C(=O)c3ccc(C)s3)C2)nc2cccnc21 (centres undefined),604
19,CCOC(=O)c1c(C)n(Cc2ccco2)c2ccc(OC)cc12,1050
20,CCCNC(=O)N1CCC2(CC1)NCCc1c2[nH]c2ccccc12,613
21,Cc1cccc(C(C)c2cnc[nH]2)c1C (centres undefined),689
22,CCOC(=O)CNC(=O)N1CCC2(CC1)NC(=O)c1ccccc1O2,630
23,Cc1nc(-c2ccncc2)nc2c1CCC(=O)N2Cc1ccncc1,540

row,Compound,RP-LC retention time [s]
1,Cc1ccc(C)c(NS(=O)(=O)c2cc(-c3[nH]ncc3C(=O)N3CCCC3)oc2C)c1,760
2,O=C(NCCC1=CCCCC1)C(=O)Nc1cccc([N+](=O)[O-])c1,1030
3,Cc1noc(C)c1CC(=O)NCCc1noc(C2CC2)n1,628
4,CCCCC(=O)N1CCN(C2CCN(CCC(C)C)C2=O)CC1 (centres undefined),585
5,O=C(Cn1cc(-c2ccccc2)c2ncnc(N3CCOCC3)c21)N1CCN(c2ccccc2)CC1,717
6,O=C(c1ccc(OCC2CCCN2C(=O)C2CCCCC2)cc1)N1CCCC1 (centres undefined),888
7,Cc1nc2ccc(C(=O)NC(C)C)cc2nc1C,649
8,CN(c1ccc(F)cc1)S(=O)(=O)N1CCCC(C(=O)N2CCN(c3ccccn3)CC2)C1 (centres undefined),660
9,O=C(NCc1cccc(C(F)(F)F)c1)c1ccc2c(c1)ncn2CCN1CCCC1,618
10,O=C(NC1CC1)c1ccc(OCC2CCCN(C(=O)c3c(F)cccc3F)C2)cc1 (centres undefined),820
11,Cn1nc(C(=O)N2CCCC(C(=O)NC3CC3)C2)c2c1CCN(C(=O)c1c(F)cccc1F)C2 (centres undefined),660
12,Cc1ccc(S(=O)(=O)N2CCC3(CC2)OCCS3)s1,906
13,O=C(NCc1ccc(F)cc1)N1CCN(CCn2c(C(F)(F)F)nc3cccnc32)CC1,639
14,CN(C)c1ccc(C(=O)NC2CCN(c3cc(-c4ccc(F)cc4)[nH]n3)C2)cc1 (centres undefined),733
15,CSc1ccccc1C(=O)N1CCN(C(=O)C2CC2c2ccc3c(c2)OCO3)CC1 (centres undefined),754
16,O=S(=O)(c1cc(-c2nnc(C3CC3)o2)co1)N1CCN(C2CCCCC2)CC1,640
17,COc1ccc(OC)c(S(=O)(=O)N2CCc3nn(CC4CC4)c(=O)n3CC2)c1,598
18,CC1CN(C(=O)N2CCC(C(=O)N3CCC(C(N)=O)CC3)CC2)c2cc(Cl)ccc2O1 (centres undefined),679
19,Cc1cccc(-c2nc(N3CCCC3)ncc2C(=O)O)c1,819
20,COCCCNC(=O)C1CCN(c2nc3cccnc3s2)CC1,623
21,CS(=O)(=O)N1CCC(C(=O)N2CCCCC2)Oc2ccc(Cl)cc21 (centres undefined),793
22,COc1ccc(N2CC(c3nc(-c4ccc(C(F)(F)F)cc4)no3)CC2=O)cc1OC (centres undefined),963
23,CCOCCCNC(=O)c1cc2sc(CC)cc2n1C,960

# Further lines, results first:
row,RP-LC retention time [s],Compound
1,880,Cc1ccc(NC(=O)Cn2nc3c(Oc4cccc(F)c4)nccn3c2=O)cc1
2,1060,O=C(CCS(=O)(=O)c1ccccc1)Nc1nc(-c2cc(Cl)sc2Cl)cs1
3,866,Cc1oc(-c2ccc(NC(=O)Cc3ccc(F)cc3)cc2)nc1Cn1cccn1
4,676,CC1CCCCN1S(=O)(=O)c1ccc2c(c1)CCC(=O)N2CC(=O)NCc1ccc(N(C)C)cc1 (centres undefined)
5,1180,Cc1ccc(-c2coc(-c3ccc(NC(=O)NC4CCCC4)cc3)n2)c(C)c1
6,742,O=C(Nc1ccccc1)N1CCC(n2cnc3ccc(F)cc3c2=O)CC1
7,1060,CCSc1nc2ccc(NS(=O)(=O)c3ccc(F)c(C)c3)cc2s1
8,570,CN1CCN(C(CNS(=O)(=O)c2ccccc2F)c2ccsc2)CC1 (centres undefined)
9,596,O=C(c1cc(-c2cccs2)[nH]n1)N1CCN(c2ccccn2)CC1
10,1010,O=C(Nc1ccc(F)cc1)C1CCN(S(=O)(=O)c2cc(-c3noc(C4CC4)n3)cs2)CC1
11,1060,COCc1cc(=O)n(CC(=O)Nc2cc(C(F)(F)F)ccc2Cl)c(N2CCOCC2)n1
12,880,CCn1cc(C(=O)NCc2ccccc2)c(S(=O)(=O)N2CCSCC2)n1
13,946,COC(=O)c1cccc(C(=O)N2CCN(c3cc(Cl)ccc3C)CC2)n1
14,850,CCCC(=O)N1CC(c2nc(-c3ccccc3)no2)C2(CCOCC2)C1 (centres undefined)
15,689,CCC(Sc1nc2ccccc2[nH]1)C(=O)Nc1nnc(C)s1 (centres undefined)
16,750,CN1C(=O)C2(CCN(C(=O)c3ccccc3F)C2)c2ccccc21 (centres undefined)
17,1000,CCc1cc(C(=O)Nc2ccc(OC)cc2)nc2cc(-c3ccccn3)nn12
18,920,Cc1ccccc1N1C(=O)CN(S(=O)(=O)c2ccccc2)CC1(C)C(=O)NC1CCCC1 (centres undefined)
19,1030,O=C(Nc1ccc2c(c1)CCN2S(=O)(=O)c1ccccc1)Nc1ccccc1Cl
20,925,CCOC(=O)C1CCCN(C(=O)c2ccc(-c3csc(CC)n3)cc2)C1 (centres undefined)
21,778,Cc1ccc(C)c(NC(=O)CSc2nnc3c4cc(-c5ccc(C)c(C)c5)nn4ccn23)c1
22,705,CN(C)C(=O)c1ccc2c(c1)N(CC(=O)Nc1ccccc1Cl)C(=O)CS2

row,RP-LC retention time [s],Compound
1,1100,COc1ccccc1-c1nnc(-c2ccc(Cl)c(S(=O)(=O)N3CCCCC3)c2)o1
2,758,CCn1cc(-c2ccc(Cl)cc2)cc1C(=O)NC(C)c1cccnc1 (centres undefined)
3,621,Cn1cc(-c2cc3n(n2)CCC(=O)N3CCCC(=O)NCCCN2CCCC2)c2ccccc21
4,741,CCN1CCn2c(nc3cc(C(=O)NCc4ccccc4C(F)(F)F)ccc32)C1=O
5,676,COCCNC(=O)C1CCCN(C(=O)Nc2ccc(NC(=O)Nc3ccccc3)cc2)C1 (centres undefined)
6,817,Cc1nn2c(CNS(=O)(=O)c3ccc4c(c3)OCCO4)c(-c3ccccc3)nc2s1
7,1050,Cn1cc(C2=CCN(S(=O)(=O)c3cccc(C(F)(F)F)c3)CC2)c2cccnc21
8,872,Cc1nc(-c2csc(S(=O)(=O)N3CCCC(C(=O)NCCc4cccs4)C3)c2)no1 (centres undefined)
9,1080,Cc1ccccc1-c1nnc(CSc2nnc(NC(=O)CC3CCCCC3)s2)o1
10,834,CC(C)c1ccc(NC(=O)CSc2ccc(NC(=O)C3CC3)nn2)cc1
11,777,CNC(=O)c1sc2nc(-c3cccc(F)c3)c(NCCCOC)n2c1C
12,554,O=C(Cn1ncccc1=O)Nc1nccs1
13,588,CCN(CC)S(=O)(=O)c1ccc2c(c1)c(=O)c(C(=O)N1CCN(c3ccccn3)CC1)cn2C
14,785,COc1ccc(S(=O)(=O)N2CC3CN(C(=O)c4cc(C)oc4C)CC(C2)O3)cc1
15,903,COCc1cc2nn(CC(=O)Nc3ccc(F)cc3)c(=O)n2c(-c2ccccc2)n1
16,593,Cn1cc(CN2CCC(C(=O)NC3CCN(Cc4ccccc4)CC3)CC2)c2cc(Cl)ccc21
17,1000,COc1ccc(-n2c(=O)c3sccc3n(Cc3nc(-c4ccccc4C)no3)c2=O)cc1
18,782,Cc1cccc(-c2nnc(SCc3cc(=O)n4nc(C)sc4n3)o2)c1
19,740,CCC(C)NC(=O)Cn1c(=O)c2cnc(-c3ccc(Cl)cc3)nc2n(CC)c1=O (centres undefined)
20,1020,CCc1noc(-c2ccc(=O)n(CC(=O)Nc3ccc(F)cc3)c2)n1
21,933,CCS(=O)(=O)Nc1ccc(C2(C(=O)NCc3cccc(F)c3)CCCCC2)cc1
